The test system of data set [1] is BT474 human breast carcinoma cells. As to the kind of experiment: Crystal violet colony assay. The format is cell-based. The procedure: The T47D human breast carcinoma cell line was grown in RPMI-1640/1× Glutamax/1× Insulin/10% fetal bovine serum and was plated at 10,000 cells/well in Corning 6 well tissue culture treated plates. The BT474 human breast carcinoma cell line was grown in DMEM/1× Glutamax/1× Insulin/10% fetal bovine serum and was plated at 25,000 cells/well in Corning 6 well tissue culture treated plates. Cells were incubated at 37° C. for 24 hours prior to addition of treatment. […] Plates were collected at week 2 and 3, at week 3, 2 plates with only CDK4/6i were switched to combination treatment. The remaining plates were collected at weeks 5 and 8. Collection was performed by washing wells with PBS before incubating 5 minutes with 0.1% crystal violet/20% methanol. Dye was removed and wells washed 4 times with PBS before being scanned at 1200 dpi. Image J was used to count the % area and colony size for each well. Graph pad was used for analysis.

Data set [2] relates to Kuramochi cells. As to the kind of experiment: CellTiter Glo cell proliferation assay. Type of data set: cell-based, human. As to conditions: CCNE1 gained, six days. As to the method:
Plates were returned to the incubator for six additional days. On day six post dosing, plates were removed and treated with CellTiter Glo reagent following manufacturer's specifications. Plates were incubated 45 minutes at room temperature and run on Biotek luminometer with 1 sec/well detection. Results were converted to Microsoft Excel and transferred to Graphpad Prism for analysis. […] These cell types are distinguished by either gained of cyclin E1 expression or activation (Kuramochi) or intrinsic amplification of cyclin E1 (OVCAR-3, COV318).
The Kuramochi human ovarian carcinoma cell line was grown in RPMI-1640/1× Glutamax/10% fetal bovine serum and the FUOV-1 human ovarian carcinoma cell line was grown in DMEM/F12/1× Glutamax/10% fetal bovine serum and both were plated at 1,000 cells/well in Corning 96 well white wall/clear bottom tissue culture treated plates. […] Plates were removed from incubator at each specified timepoint and treated with CellTiter-Glo (Promega, Inc) following manufacturer specifications. Plates were then read on CLARIOstar luminometer with 1 sec/well integration. Results were converted to Microsoft Excel and transferred to GraphPad Prism for Analysis (FIG. 16A-B).
(In general: Cellular ATP, detected with luciferase, serves as a proxy for viable cell number.)

Data set [3] concerns γ-H2AX in H526 cells. Description: γ-H2AX flow cytometry. The format is cell-based, human. The procedure:
The H526 human lung carcinoma cell line was grown in RPMI-1640/1× Glutamax/10% fetal bovine serum and was plated at 200,000 cells/well in Corning 6 cm tissue culture treated plates. Cells were incubated at 37° C. for 24 hours prior to addition of the first treatment. […] Cells were treated to 24 or 48 hours post-initial treatment, with 10 μM EdU added 1 hour prior to collection. Cells were collected and fixed in 1% paraformaldehyde. Cells were incubated with pacific blue azide dye as described by Thermo Scientific. Cells were then incubated with antibody against γ-H2AX at a ratio of 1:50 before incubation with FarRed dye and RNase. Cells were analyzed on a BD Celesta and data compiled using FloJo and GraphPad.
The H526 human lung carcinoma cell line was grown in RPMI-1640/1× Glutamax/10% fetal bovine serum and was plated at 200,000 cells/well in Corning 6 cm tissue culture treated plates. Cells were incubated at 37° C. for 24 hours prior to addition of the first treatment. […] Cells were treated to 24 hours post-initial treatment, with 10 μM EdU added at hour 23 (FIG. 28A). Cells were collected and fixed in 1% paraformaldehyde. Cells were incubated with pacific blue azide dye as described by Thermo Scientific. […] Cells were analyzed on a BD Celesta and data compiled using FloJo and GraphPad.
On the technique in general: A flow cytometer gives signals particle by particle.

Data set [4] deals with pRb in Kuramochi cells. Description: Western blot pRb. As to conditions: 30-1000 nM, 24 hours. Type of data set: cell-based, human. As to the method:
An independent human ovarian carcinoma cell line, Kuramochi human ovarian carcinoma, was grown in RPMI-1640/1× Glutamax/10% fetal bovine serum and was plated at 300,000 cells/well in Corning 6 well tissue culture treated plates. Cells were incubated at 37° C. for 24 hours prior to addition of 2 replicates of 0.1% DMSO control and 1 replicate for each treatment. […] Cells were collected by washing each well twice with cold PBS, then scraping cells in the presence of 150 μL cold RIPA with protease and phosphatase inhibitors. Lysates were clarified by centrifugation at 14 kxg for 10 min at 4° C. and supernatants transferred to clean tubes. A BCA assay was performed to determine the protein concentration of each lysate. 30 μg of protein was mixed with sample buffer and reducing agent before being run on a 4-12% SDS-PAGE. Protein was transferred to a nitrocellulose membrane and blocked with LI-COR blocking buffer for 1 hour. Membranes were incubated overnight in primary antibody at 4° C. Following 3 washes with TBST, membranes were incubated for 45 minutes in LI-COR secondary antibodies. Following 2 washes in TBST, and one TBS wash, membranes were scanned using a LI-COR OdysseyCLx. Image studio was used for image analysis.

Data set [5] deals with H82 (NCIH82) cells. As to the kind of experiment: CellTiter Glo cell proliferation assay. The format is cell-based. To be noted: six days. As to the method:
Plates returned to incubator for six additional days. On day six post dosing, plates were removed and treated with CellTiter Glo reagent following manufacturer's specifications. Plates incubated 45 minutes at room temperature and run on a Biotek luminometer with 1 sec/well detection. Results were converted to Microsoft Excel and transferred to GraphPad Prism for analysis.

Data set [6] can be described thus: Functional observational battery in 28-day repeat-dose toxicity study. To be noted: any dose level. The format is in vivo, rats. An excerpt:
Safety pharmacology studies described more fully below included a functional observational battery (FOB) testing in a 28-day repeat-dose toxicity study in rats, electrocardiogram (ECG) evaluations in a 28-day repeat-dose toxicity study in dogs, and a single-dose respiratory safety pharmacology study in rats.

The nature of data set [7]: Nonclinical pharmacokinetics (IV and PO). To be noted: in vivo. As to the method:
Nonclinical PK studies were conducted for single dose of Compound I in rats, mice, and dogs, and for repeated doses of Compound I in rats and dogs. […] The relationship between dose level and systemic exposure was generally similar in male and female animals.

For data set [8], the system named is OVCAR-3 xenograft tumor. Description: OVCAR-3 xenograft tumor fragment model (tumor growth, survival). The format is in vivo, mice. To be noted: 100 mpk twice daily. The procedure:
OVCAR-3 xenograft tumor fragments were harvested from host animals and implanted into immune-deficient mice (CR1:NU(NCr)-Fox1^nu). The study was initiated at a mean tumor volume of approximately 175-300 mm^3. […] The test agents were delivered at 10 mL/kg by oral gavage. […] Individual replicate values over the course of the experiment are shown in FIG. 19A, extended out to 42 days post-study initiation.

SMILES strings stand for the structures. Entries after “also recorded” stand apart in the source; their conditions may differ. Read-outs that look alike come from different tables or passages of the source. Bounds are passed on as bounds.

The term half-life denotes the time in which the quantity being followed falls by half. The low end stands for rapid decline, the high end for slow decline. The Tmax is the time at which the peak concentration occurs. `NS(=O)(=O)c1ccc(Nc2ncc3cc4n(c3n2)C2(CCCCC2)C(=O)NN4)cc1` [Compound I]: the “growth with both Compound I and a CDK4/6i” value in data set [1] (300 nM each, 8 weeks) was “no noticeable growth after 8 weeks”. For the same compound, in data set [1] (300 nM with palbociclib or abemaciclib, up to 8 weeks), the “time to CDK4/6i resistance” value is “prolonged the time to CDK4/6i resistance”. In addition, the “cell viability compared with palbociclib” value in data set [2] was “potently decreases cell viability; also recorded: at concentrations substantially lower than palbociclib”. The “γ-H2AX signal, combination with cisplatin” value in data set [3] (300 nM Compound I + 300 nM cisplatin) is given as “roughly double the signal”. Besides, the “γ-H2AX signal, Compound I alone” value in data set [3] (30 to 1000 nM, 24 or 48 hours) is on record as “increased yH2AX starting at 100 nM”. In data set [4], the pRb levels result is listed as “decreases pRb levels in a dose-dependent manner”. The “inhibition compared with palbociclib” value in data set [5] was “low nanomolar concentrations”. Also, in data set [6], the FOB results is given as “did not affect”. In data set [7] (dog, dogs), the half-life is not above 360 min. Moreover, the time to peak (Tmax) was not above 15 min in data set [7] (dog, iv, dogs, read-out: Tmax after IV dosing); 72 to 102 min in data set [7] (dog, po, dogs, read-out: Tmax after PO dosing); not above 15 min in data set [7] (mouse, iv, mice, read-out: Tmax after IV dosing); 15 to 240 min in data set [7] (mouse, po, mice, read-out: Tmax after PO dosing); not above 15 min in data set [7] (rat, iv, rats, read-out: Tmax after IV dosing); 15 to 30 min in data set [7] (rat, po, rats, read-out: Tmax after PO dosing). Further, the overall survival entry in data set [8] is recorded as “greatest overall survival”. In data set [8] (oral gavage, 28 days), the tumor volume result is recorded as “reduced tumor volume the most among all treatment conditions”.

The values above are taken from patent US20250199015A1, “CYCLIN-DEPENDENT KINASE 2 INHIBITORS FOR MEDICAL TREATMENT” (INCYCLIX BIO, LLC, priority 2022, published 2025).
